Data: patent US20160368872A1, “COMPOUNDS AND METHODS FOR TREATING CANCERS” (HEALTH RESEARCH, INC., priority 2013, published 2016)

Assays:
[1] = test system: androgen receptor; test: AR level in cells with inhibited p53 activity; type: cell-based; conditions: MCF7 cells with functionally inactive p53 (R175H, GSE56)
Text: Also tested was the hypothesis that degradation of androgen receptor in prostate and breast cancer cells may be due to p53 induced accumulation of mdm2, which is also ubiquitin ligase for androgen receptor (FIG. 15). p53 was inactivated in several cell lines using different approaches what led to the blockade of mdm2 accumulation after c52 treatment. However androgen receptor was still degraded in c52 treated cells even in the absence of p53 activation and mdm2 accumulation (FIG. 16).

[2] = test system: CWR22R cells; type: cell-based
Protocol: All compounds were tested for toxicity using 4 cells lines, target cells-CWR22R and non-target cells, Hela, PC3 and MDA-MB-231 (FIGS. 1A-F).
LC50 data of in vitro 72 hours cytotoxicity assay are included in this table for comparison.

[3] = test system: CWR22R cells; test: toxicity of PLA1055 to CWR22R cells depending on time of incubation (LC90, Alamar Blue); type: cell-based; conditions: incubation 4-8 hours; survival detected at 72 hours
Protocol: FIG. 21. Toxicity of PLA1055 to CWR22R cells in vitro depending on time of incubation. PLA1055 was added to CWR22R in full range of concentrations for the periods of time shown on the right. After that drug containing media were changed for drug free and survival of cells was detected at 72 hours after start of treatment using Alamar Blue assay (Promega).
An in vitro experiment was run to detect the concentration of PLA1055 needed to kill all tumor cells in vitro (LC90) during different periods of time (30 minutes-72 hours, FIG. 21)).

[4] = plasma concentration after intravenous and intraperitoneal injections (PK); type: in vivo; conditions: for bioavailability through IP injection: IP versus IV, doses 50-100 mg/kg; for course of plasma concentration: after intravenous and intraperitoneal injections, 50-100 mg/kg
[5] = tissue drug concentrations in mice bearing CWR22R tumors; type: in vivo, SCID mice
Protocol: (§1) We tested these compounds in an in vivo efficacy experiment using model of CRPC in SCID mice, CWR22R. Two compounds, PLA1079 and 1125, which were synthesized in the amount of 500 mg were tested in full scale experiment with either 5 IV daily injections or 10 IP daily injections. After 5 IP or IV injections intra-tumor concentration of the compounds were measured in few mice from this experiment.
Two other compounds, PLA1148 and 1098 (PK testing in FIGS. 8 and 9) were tested in a small scale efficacy experiment. Upon PK testing of the compound PLA1148 one mouse was injected twice with 10 min interval. However the concentration of the drug in plasma of this mouse was not twice, but >4 times higher than in mice injected once. […] It was decided to utilize this observation in an attempt to get higher plasma and tumor concentration of both compounds. Therefore in the pilot efficacy experiment in the same model of CWR22R cells mice were treated with 2 IP injections with 10 minute interval. Treatment with PLA1098 was carried out for two days. […] However this is so far the highest concentration found in tumor. […]

[6] = test system: Caveolin1; test: expression of Caveolin1 in sensitive versus resistant cells; type: cell-based; conditions: MDA MB 231 and MCF7 cells
Text: FIG. 12. Expression of Caveolin1 in sensitive versus resistant cells. Caveolin1 is expressed in resistant MDA MB 231 cells, but not in sensitive MCF7 cells.

[7] = test system: CWR22R tumors; test: in vivo efficacy, subcutaneous xenografts of CWR22R cells in SCID mice
Protocol: as §1
(§2) Two other compounds, PLA1148 and 1098 (PK testing in FIGS. 8 and 9) were tested in a small scale efficacy experiment. Upon PK testing of the compound PLA1148 one mouse was injected twice with 10 min interval. However the concentration of the drug in plasma of this mouse was not twice, but >4 times higher than in mice injected once. […] It was decided to utilize this observation in an attempt to get higher plasma and tumor concentration of both compounds. Therefore in the pilot efficacy experiment in the same model of CWR22R cells mice were treated with 2 IP injections with 10 minute interval. Treatment with PLA1098 was carried out for two days. […] However this is so far the highest concentration found in tumor.
Pilot efficacy experiments were run for compounds: PLA1163, PLA1148 using the same model of subcutaneous xenografts of CWR22R cells in SCID mice (FIGS. 18 and 19).

[8] = toxicity observed in mice of the pilot efficacy experiments; type: in vivo
Protocol: as §2
This compound may be also potentially promising.

[9] = test system: presumable target protein in protein lysates from sensitive CWR22r cells; test: DARTS (Drug Affinity Responsive Target Stability) assay; conditions: treated vs untreated
Protocol: FIG. 24. DARTS (Drug Affinity Responsive Target Stability) assay was performed using c52 and PLA1118. According to this assay these compounds are capable of protecting presumable target protein from protease degradation. Protein lysates from sensitive CWR22r cells were incubated with or without the drug and subsequently digested with the indicated concentration of pronase. A. c52 was used (lane T-treated, M-marker) with indicated concentrations of pronase; ability of c52 to protect its target from protease cleavage was judged based on presence of protein band in the treated lane vs the untreated (UT) control.

[10] = 24 hours after last injection, 2 IP injections with 10 minute interval, two days

With `CC(=O)c1ccc2c(c1)c1cc(C(C)=O)ccc1n2CCNC(C)C` [CBL 137, reference compound] the AR level [1] was “AR is being degraded”.
In the case of `CC(=O)c1ccc2c(c1)c1ccccc1n2CCCF` [PLA1055], the CC50 [2] is reported as 40 nM, the LC90 [3] is reported as 2500 nM and the “plasma concentration at 8 hours” value ([4]; 8 hours, single IV administration of 50 mg/kg (FIG. 20)) is reported as “below 1 uM”. The “time up to which compound was detected” value ([4]; single IV administration of 50 mg/kg (FIG. 20)) was “up to 24 hours”.
For `CCCn1c2ccccc2c2cc(-c3nnco3)ccc21` [PLA1079], the CC50 [2] was 120 nM, the “Tumor concentration” value ([5]; 100 mg/kg, IP/IV) was 24 to 48 nM and the “levels of Caveolin1 expression” value [6] was “did not change”. For the same compound, the AR level [1] was “AR is being degraded”, the in vivo efficacy ([7]; 5 IV daily injections or 10 IP daily injections) was “absence of in vivo efficacy” and the “bioavailability through IP injection” value [4] was “very high bioavailability”. For the same compound, the “course of plasma concentration” value [4] was “fast reduction of concentration during the first hour”.
With `CCCn1c2ccccc2c2c3c(ccc21)C(=O)N(C)C3` [PLA1098] the CC50 [2] was 40 nM, the “Liver” value ([5]; 100 mg/kg, IP) was 0 nM and the “Tumor concentration” value ([5]; 100 mg/kg, IP) was 23 to 25 nM. The Intratumor concentration ([5]; 2 tested tumors at 24 hours after last injection, 2 IP injections with 10 minute interval, two days) was 25 nM, the compound in liver [5, 10] was “no detectable” and the compound in plasma [5, 10] was “no detectable”. For the same compound, the “side effects during the treatment” value ([8]; 2 IP injections with 10 minute interval for two days) was “no signs of side effects were noticed”, the signs of toxicity ([8]; summary statement) was “without any signs of toxicity” and the “protection of target protein band from pronase degradation” value [9] was “protected their targets from degradation”. For the same compound, the “tumor volume and tumor weight vs vehicle control” value ([7]; 2 IP injections with 10 minute interval for two days, tumors excised 12 days after treatment) was “certain reduction of tumor volume and tumor weigh in the 1098 treated group vs vehicle control, but not statistically significant”, the in vivo efficacy ([7]; summary statement) was “evidence of in vivo efficacy” and the “bioavailability through IP injection” value [4] was “very high bioavailability”. For the same compound, the “course of plasma concentration” value [4] was “fast reduction of concentration during the first hour”.
With `CCCn1c2ccccc2c2cc(S(C)(=O)=O)ccc21` [PLA1118] the “protection of target protein band from pronase degradation” value [9] was “faintly”.
